In the supplement of paper PMC11451515:

Key:
Settings in all cases: 48 h
NOMO1 [1] = assay: AUC of viability dose-response curve (% viability x log10 dose units); higher = less sensitive
In short: (§1)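 Leukemia cells adapted to each medium were seeded in 1536-well plates (500 or 1000 cells/well). They were dosed with library compounds in DMSO at 11 threefold doses, 47 μM to 0.79 nM, for 48 h at 37°C. CellTiter-Glo One luminescence was normalised per plate to DMSO and cell-free wells. Area under the curve was integrated by trapezoidal rule over log10 doses on a four-parameter log-logistic fit; curves exceeding full viability were scaled and curves failing quality control removed.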

P12-Ichikawa [2] = assay: as above
In short: as §1

SEM cells [3] = assay: as above
In short: as §1

NOMO1 [4] = assay: cell viability relative to DMSO control; higher = less cytotoxic
In short: (§2)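 Cells were incubated for 48 h at 37°C before CellTiter-Glo One luminescence was read. The cells were NOMO1 or SEM (500 cells/well) or P12-Ichikawa (1000 cells/well) leukemia cells, adapted for at least four passages in each medium and seeded in 1536-well plates (5 μl). Dosing used library compounds in DMSO applied by pin over 11 threefold points, 47 μM to 0.79 nM. Viability is the per-plate percentage of DMSO wells, with cell-free wells as background.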

SEM cells [5] = assay: as above
In short: as §2

P12-Ichikawa [6] = assay: as above
In short: as §2

C[S+](=O)([O-])c1ccc([C@@H](O)[C@@H](CO)NC(=O)C(Cl)Cl)cc1
AUC of viability dose-response curve
Settings	NOMO1 [1]	P12-Ichikawa [2]	SEM cells [3]
HPLM + 10% dialyzed FBS	445	456	432
RPMI 5 mM glucose + 10% FBS	476	431	421
RPMI 5 mM glucose + 10% dialyzed FBS	455	420	450

Nc1cccc([S+](=O)([O-])N2CCCN([S+](=O)([O-])c3ccc4c(c3)OCCO4)CC2)c1
AUC of viability dose-response curve
Settings	NOMO1 [1]	P12-Ichikawa [2]	SEM cells [3]
HPLM + 10% dialyzed FBS	445	444	460
RPMI 5 mM glucose + 10% FBS	464	464	434
RPMI 5 mM glucose + 10% dialyzed FBS	447	460	437

c1ccc(CNc2nc(NCc3ccccc3)c3ccccc3n2)cc1
cell viability [%], HPLM + 10% dialyzed FBS
Settings	NOMO1 [4]	SEM cells [5]
0.000781 µM	92.7	104
0.00234 µM	114	116
0.00702 µM	144	117
0.0211 µM	121	125
0.0632 µM	138	130
0.19 µM	134	132
0.569 µM	148	136
1.71 µM	158	127
5.12 µM	132	136
15.4 µM	118	133
46.1 µM	5.97	32.5

AUC of viability dose-response curve
Settings	NOMO1 [1]	P12-Ichikawa [2]	SEM cells [3]
HPLM + 10% dialyzed FBS	450	473	440
RPMI 5 mM glucose + 10% FBS	466	465	462
RPMI 5 mM glucose + 10% dialyzed FBS	463	465	470

COc1ccc(/C=C\c2cc(OC)c(OC)c(OC)c2)cc1NC(=O)[C@H](N)CO
cell viability [%], RPMI 5 mM glucose + 10% FBS
Settings	P12-Ichikawa [6]	SEM cells [5]
0.000781 µM	121	104
0.00234 µM	144	118
0.00702 µM	125	115
0.0211 µM	50.9	58.1
0.0632 µM	24.6	15
0.19 µM	13.8	11.1
0.569 µM	9.28	14.7
1.71 µM	7.31	7.29
5.12 µM	8.08	6.77
15.4 µM	4.52	3.55
46.1 µM	4.09	3.19

AUC of viability dose-response curve
Settings	NOMO1 [1]	P12-Ichikawa [2]	SEM cells [3]
HPLM + 10% dialyzed FBS	209	179	190
RPMI 5 mM glucose + 10% FBS	188	157	167
RPMI 5 mM glucose + 10% dialyzed FBS	206	202	186

CNC[C@H](O)[C@@H](O)[C@H](O)[C@H](O)CO
cell viability [%]
Settings	HPLM + 10% dialyzed FBS	RPMI 5 mM glucose + 10% FBS	RPMI 5 mM glucose + 10% dialyzed FBS
P12-Ichikawa [6], 0.000781 µM	114	–	109
P12-Ichikawa [6], 0.00234 µM	124	–	126
P12-Ichikawa [6], 0.00702 µM	122	–	124
P12-Ichikawa [6], 0.0211 µM	130	–	125
P12-Ichikawa [6], 0.0632 µM	123	–	125
P12-Ichikawa [6], 0.19 µM	125	–	126
P12-Ichikawa [6], 0.569 µM	120	–	122
P12-Ichikawa [6], 1.71 µM	134	–	131
P12-Ichikawa [6], 5.12 µM	128	–	123
P12-Ichikawa [6], 15.4 µM	119	–	119
P12-Ichikawa [6], 46.1 µM	119	–	126
SEM cells [5], 0.000781 µM	96.3	103	98.1
SEM cells [5], 0.00234 µM	106	96.2	118
SEM cells [5], 0.00702 µM	103	107	98.8
SEM cells [5], 0.0211 µM	106	93.9	88.8
SEM cells [5], 0.0632 µM	106	117	116
SEM cells [5], 0.19 µM	114	115	103
SEM cells [5], 0.569 µM	127	132	122
SEM cells [5], 1.71 µM	63.4	61.3	58.3
SEM cells [5], 5.12 µM	121	112	136
SEM cells [5], 15.4 µM	40.9	24.9	28
SEM cells [5], 46.1 µM	112	114	119

AUC of viability dose-response curve
Settings	HPLM + 10% dialyzed FBS	RPMI 5 mM glucose + 10% FBS	RPMI 5 mM glucose + 10% dialyzed FBS
NOMO1 [1]	432	473	470
P12-Ichikawa [2]	471	471	474

Cc1cn2cc(C(=O)N(C)CCO)cc(N[C@@H]3CCOc4cccc(C)c43)c2n1
cell viability [%]
Settings	NOMO1 [4]	P12-Ichikawa [6]	SEM cells [5]
HPLM + 10% dialyzed FBS, 0.000781 µM	93.8	107	90.6
HPLM + 10% dialyzed FBS, 0.00234 µM	105	106	107
HPLM + 10% dialyzed FBS, 0.00702 µM	112	109	106
HPLM + 10% dialyzed FBS, 0.0211 µM	118	112	101
HPLM + 10% dialyzed FBS, 0.0632 µM	122	111	105
HPLM + 10% dialyzed FBS, 0.19 µM	115	119	107
HPLM + 10% dialyzed FBS, 0.569 µM	110	118	113
HPLM + 10% dialyzed FBS, 1.71 µM	131	115	114
HPLM + 10% dialyzed FBS, 5.12 µM	119	119	109
HPLM + 10% dialyzed FBS, 15.4 µM	108	110	113
HPLM + 10% dialyzed FBS, 46.1 µM	130	117	104
RPMI 5 mM glucose + 10% FBS, 0.000781 µM	96.2	105	84.3
RPMI 5 mM glucose + 10% FBS, 0.00234 µM	108	119	88.8
RPMI 5 mM glucose + 10% FBS, 0.00702 µM	107	107	75
RPMI 5 mM glucose + 10% FBS, 0.0211 µM	104	113	87.1
RPMI 5 mM glucose + 10% FBS, 0.0632 µM	105	118	80.7
RPMI 5 mM glucose + 10% FBS, 0.19 µM	106	117	82.9
RPMI 5 mM glucose + 10% FBS, 0.569 µM	113	115	95.8
RPMI 5 mM glucose + 10% FBS, 1.71 µM	111	123	81.1
RPMI 5 mM glucose + 10% FBS, 5.12 µM	122	115	87.2
RPMI 5 mM glucose + 10% FBS, 15.4 µM	117	105	67.6
RPMI 5 mM glucose + 10% FBS, 46.1 µM	129	114	81.5
RPMI 5 mM glucose + 10% dialyzed FBS, 0.000781 µM	105	106	88.9
RPMI 5 mM glucose + 10% dialyzed FBS, 0.00234 µM	104	109	93.7
RPMI 5 mM glucose + 10% dialyzed FBS, 0.00702 µM	114	105	90
RPMI 5 mM glucose + 10% dialyzed FBS, 0.0211 µM	130	116	110
RPMI 5 mM glucose + 10% dialyzed FBS, 0.0632 µM	114	118	95.3
RPMI 5 mM glucose + 10% dialyzed FBS, 0.19 µM	110	114	113
RPMI 5 mM glucose + 10% dialyzed FBS, 0.569 µM	122	118	94.1
RPMI 5 mM glucose + 10% dialyzed FBS, 1.71 µM	117	115	106
RPMI 5 mM glucose + 10% dialyzed FBS, 5.12 µM	115	110	108
RPMI 5 mM glucose + 10% dialyzed FBS, 15.4 µM	128	118	95.6
RPMI 5 mM glucose + 10% dialyzed FBS, 46.1 µM	129	109	94.9

AUC of viability dose-response curve
Settings	HPLM + 10% dialyzed FBS	RPMI 5 mM glucose + 10% FBS	RPMI 5 mM glucose + 10% dialyzed FBS
NOMO1 [1]	462	422	443
P12-Ichikawa [2]	465	470	469
